Results taken from patent US7612107B2, “Treatment and inhibition of disease conditions using flexible heteroarotinoids” (The Board of Regents of the University of Oklahoma, priority 2005, dated 2009).

Columns and labels:
[1] = system: Thymidine Phosphorylase (TP); test: Real time rt-PCR and Western blot validation, thymidine phosphorylase; type: cell-based; details: OVCAR-3 1 μM (rt-PCR); A2780 10 μM (Western)
Protocol: FIG. 13. Real Time rt-PCR validation of SHetA2 inhibition of TP and TSP-1 mRNA Expression. OVCAR-3 cultures were treated with 1 μM SHetA2 for the indicated period of time prior to harvesting the cells and isolating RNA. cDNA was prepared and used in real time rt-PCR reactions. Real time rt-PCR was performed on cDNA from cultures various treatment times.
FIG. 14. Western blot validation of SHetA2 inhibition of TP and TSP4 protein expression. A2780 ovarian cancer cells were treated with 10 μM SHetA2 for the indicated amounts of time. Equal amounts of whole cell protein extracts were evaluated by Western blot.

[2] = system: OVCAR-3 xenograft tumors; test: OVCAR-3 xenograft tumor growth model; type: in vivo, mouse; details: 10 mg/kg/day by gavage, 5 days per week, 4 weeks
Protocol: Groups of 5 mice bearing OVCAR-3 xenografted tumors were gavaged daily with the indicated drugs in sesame oil (▪ closed square) or with sesame oil alone (∘ open circle). Tumor volumes were measured in 3 dimensions with calipers weekly. Each data point represents the average and standard error of the tumor volumes on the indicated treatment day relative to the tumor volume on day zero. Nu/nu mice were injected subcutaneously with one million OVCAR-3 cells and arbitrarily divided into five groups of six mice each. After three weeks of tumor growth, the animals were gavaged with sesame oil, 10 mg/kg/day 4-HPR, or the indicated Het five times per week for four weeks and the tumors were measured once per week. The tumor sizes were averaged and divided by the average size for each group on the day that treatment was initiated (day 0).
The OVCAR-3 cultures were maintained in RPMI media supplemented with 10% fetal bovine serum. All animal experimentation described in this manuscript was conducted in accord with accepted standards of humane animal care. Twenty-five female NU/NU CD-1 female mice (Charles Rivers Laboratories) were housed in a laminar flow room under sterile conditions at 83-85° F. The mice were quarantined for one week prior to the beginning of the study and were allowed access to autoclaved food (Purina 5001 mouse/rat sterilizable diet, St. Louis, Mo.) and water ad libitum. OVCAR-3 cells in log phase growth were harvested by trypsinization, resuspended in RPMI culture medium, and centrifuged at 3,000 rpm for 10 min. The pellets were resuspended in RPMI culture medium at a concentration of 7×10^6 cells/ml before implantation into mice. Animals were injected with 3.5×10^6 cells into the right scapular region with a 24-gauge needle/1 cc tuberculin syringe. Twenty-four hours after tumor implantation, animals were randomized into 5 groups of 5 animals each.
The Hets SHet50, SHetA2 and SHetA4 were synthesized and their receptor specificity determined as previously described (17,19). The 4-HPR compound was a gift from R.W. Johnson Pharmaceutical Research Institute, Raritan, N.J. All retinoids were dissolved in super refined sesame oil (Croda, Inc., Parsippany, N.J.) and stored at −80° C. Since the retinoids are light sensitive, all manipulations involving retinoids were performed under subdued lighting. […] Tumors were measured with calipers weekly, and tumor volumes were calculated using the formula: volume=length×width×height. Tumor growth was determined by the dividing the volume of the tumor at each weekly measurement by the volume on the first day of treatment. Animal weights and clinical signs of overall health status and cutaneous toxicities were recorded weekly.

[3] = system: organotypic cultures of normal endometrial cells; test: Chemoprevention in DMBA-treated endometrial organotypic cultures; type: cell-based; details: histology and karyometric analysis
From the text: Untreated: The specimen is cellular with both surface and mid-gel cells presence in abundance. Two cell types are clearly present. One appears to be stromal. The nuclei are thin and spindle shaped and the cytoplasm is similar. When cut in cross-section the nuclei are very small and round and hyperchromatic. The other cells have large, oval to almost boxcar nuclei with small nucleoli and abundant cytoplasm. Numerous mitosis are present. The epithelial cells are almost syncitial in nature and appear to cling to one another. With DMBA Carcinogen: The specimen is cellular. The cells present have lost their cytoplasm. There is more pleomorphism of the cells and many are very hyperchromatic. Mitoses are very numerous-approximately 2× the number in untreated. Cells no longer are together but are distinct one from another. Stromal cells intermix with the epithelial cells. […]
FIG. 19 illustrates a typical experiment in which organotypic cultures of normal endometrial cells were treated with a carcinogen called DMBA and developed the cancer phenotype. […] All segmented nuclei were then subjected to texture feature extraction using TICAS software, resulting in 95 texture features for each nucleus that were subjected to quantitative analysis.

[4] = system: SW962 vulvar carcinoma cultures; test: Annexin-V-Fluos apoptosis assay; type: cell-based; details: cancer cell lines
Protocol: SW962 vulvar carcinoma cultures were treated with 10 μM of the indicated retinoid or the same volume of solvent. At the specified times, the cultures were labeled with Annexin-V-Fluos and propidium iodide (PI), and the number of apoptotic cells was quantified using dual-laser flow cytometric analysis.
The TUNEL assay was used to evaluate apoptosis in fixed, paraffin embedded, cut sections of the treated and control cultures (FIG. 17). […] These two cellular outcomes appeared to be mutually exclusive.

## CC1(C)CC(C)(C)c2cc(NC(=S)Nc3ccc([N+](=O)[O-])cc3)ccc2S1 [SHetA2]
[1]
  Expression of TP at the RNA and protein levels: inhibit expression
[2]
  Growth of xenograft tumors versus sesame oil control: significantly inhibited the growth
[3]
  Development of the cancer phenotype after DMBA carcinogen: prevented the development of this phenotype
[4]
  Induction of apoptosis (Annexin-V-Fluos): same concentration range as 4-HPR
